# Patent publication US12071425B2 (Genentech, Inc., priority 2018, dated 2024)
# Counter-ions that a name gives are not always drawn.
# Biological target: kinase domain of IRE1 alpha (His-tagged kinase dead construct KR, AA G547-L977, D688N) (Homo sapiens (Human), UniProt O75460, D688N)
# Assay: IRE1α TR-FRET competition binding assay
# Settings: competition with Kinase Tracer 236, 0.1 μM; one hour at room temperature
# Method: To determine the affinity of compound binding to the kinase domain of IRE1 alpha, a Time Resolved Fluorescence Resonance Energy Transfer (TR-FRET) competition assay was used. A His-tagged IRE1 alpha kinase dead construct containing the kinase and RNase domains (KR, AA G547-L977, D688N) was expressed in Sf9 insect cells. The purified protein (final concentration 0.006 μM micromolar) was pre-incubated with anti-His Europium labeled antibody (Life Technologies PV5596, final concentration 0.002 μM micromolar) for one hour at 4° C. in 1X TR-FRET Assay Buffer (50 mM HEPES, pH 7.5.10 mM MgCl2, 0.083 mM Brij 35, 1 mM DTT, and 0.1% bovine gamma globulin) prior to addition to test compounds. A fluorescent labeled probe based on an ATP competitive inhibitor (Kinase Tracer 236, Life Technologies PV5592) is added to a final concentration of 0.1 μM (micromolar). Reactions were carried out for one hour at room temperature in a final volume of 20 μL (microliter) in 384 well white ProxiPlates (Perkin Elmer 6008289). Binding of the tracer to the IRE1 protein alpha was detected in an Envision instrument (PerkinElmer) equipped with a TRF laser option and a LANCE/Delfia Dual/Bias D400/D630 mirror (Ex 347 nm, 1st Em 665 nm, 2nd Em 615 nm).
# Exemplary compounds in Table A1 were tested in the IRE1α binding assays.
# kinase domain of IRE1 alpha (His-tagged kinase dead construct KR, AA G547-L977, D688N), sequence (O75460 547-977 D688N): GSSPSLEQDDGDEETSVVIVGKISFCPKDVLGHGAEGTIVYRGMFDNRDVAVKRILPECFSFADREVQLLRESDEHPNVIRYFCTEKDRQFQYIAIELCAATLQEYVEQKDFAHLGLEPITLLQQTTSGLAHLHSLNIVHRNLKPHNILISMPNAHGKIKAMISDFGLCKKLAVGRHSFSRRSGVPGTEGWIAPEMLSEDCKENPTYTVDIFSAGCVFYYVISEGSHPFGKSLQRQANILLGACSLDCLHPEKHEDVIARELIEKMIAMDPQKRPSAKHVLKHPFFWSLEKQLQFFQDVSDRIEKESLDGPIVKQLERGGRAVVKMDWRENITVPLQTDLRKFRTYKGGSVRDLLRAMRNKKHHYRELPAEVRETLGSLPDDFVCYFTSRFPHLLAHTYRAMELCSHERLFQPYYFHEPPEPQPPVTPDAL
row,IC50,SMILES
1,8.9 nM,"CC(F)(F)C1CNCC(Nc2nccc(-c3cccnc3Oc3cc(F)c(NS(=O)(=O)Cc4ccccc4)c(F)c3F)n2)C1 (racemic) [Compound 337, N-(4-((3-(2-((5-(1,1-Difluoroethyl)piperidin-3-yl)amino)pyrimidin-4-yl)pyridin-2-yl)oxy)-2,3,6-trifluorophenyl)-1-phenylmethanesulfonamide hydrochloride]"
2,300 nM,"O=C(Nc1ccc(Oc2ncccc2-c2ccnc(N[C@H]3CCCNC3)n2)c(F)c1F)C1CC12CC2 (single isomer, unassigned) [Compound 150, hydrochloride]"
3,9.4 nM,"O=S(=O)(Cc1ccccc1)Nc1ccc(Oc2ncccc2-c2ccnc(NC34CNCC3C4)n2)c(F)c1F (single isomer, unassigned) [Compound 185, N-(4-((3-(2-(3-Azabicyclo[3.1.0]hexan-5-ylamino)pyrimidin-4-yl)-2-pyridyl)oxy)-2,3-difluoro-phenyl)-1-phenyl-methanesulfonamide]"
4,20 nM,"O=S(=O)(Cc1ccccc1)Nc1ccc(Oc2ncccc2-c2ccnc(NC34CNCC3C4)n2)c(F)c1F (single isomer, unassigned) [Compound 186, N-(4-((3-(2-(3-Azabicyclo[3.1.0]hexan-5-ylamino)pyrimidin-4-yl)-2-pyridyl)oxy)-2,3-difluoro-phenyl)-1-phenyl-methanesulfonamide]"
5,1300 nM,"O=S(=O)(Cc1ccccc1)Nc1c(F)cc(Oc2ncccc2-c2ccnc(CC3CCCNC3)n2)c(F)c1F (single isomer, unassigned) [Compound 198, 1-Phenyl-N-(2,3,6-trifluoro-4-((3-(2-(3-piperidylmethyl)pyrimidin-4-yl)-2-pyridyl)oxy)phenyl)methanesulfonamide]"
6,110 nM,"O=S(=O)(Cc1ccccc1)Nc1c(F)cc(Oc2ncccc2-c2ccnc(CC3CCCNC3)n2)c(F)c1F (single isomer, unassigned) [Compound 199, 1-Phenyl-N-(2,3,6-trifluoro-4-((3-(2-(3-piperidylmethyl)pyrimidin-4-yl)-2-pyridyl)oxy)phenyl)methanesulfonamide]"
7,530 nM,"OC(CNc1cccc(Oc2ncccc2-c2ccnc(N[C@H]3CCCNC3)n2)c1F)C(F)(F)F (single isomer, unassigned) [Compound 200]"
8,210 nM,"OC(CNc1cccc(Oc2ncccc2-c2ccnc(N[C@H]3CCCNC3)n2)c1F)C(F)(F)F (single isomer, unassigned) [Compound 201]"
9,45 nM,"CCC1CCN(c2ccc(Oc3ncccc3-c3ccnc(N[C@H]4CCCNC4)n3)c(F)c2F)C1=O (single isomer, unassigned) [Compound 248]"
10,160 nM,"CCC1CCN(c2ccc(Oc3ncccc3-c3ccnc(N[C@H]4CCCNC4)n3)c(F)c2F)C1=O (single isomer, unassigned) [Compound 249]"
11,1.6 nM,"O=S(=O)(CC1CCC1(F)F)Nc1c(F)cc(Oc2ncccc2-c2ccnc(N[C@@H]3CNC[C@@H](F)C3)n2)c(F)c1F (single isomer, unassigned) [Compound 264]"
12,1.4 nM,"O=S(=O)(CC1CCC1(F)F)Nc1c(F)cc(Oc2ncccc2-c2ccnc(N[C@@H]3CNC[C@@H](F)C3)n2)c(F)c1F (single isomer, unassigned) [Compound 265]"
13,27 nM,"O=S(=O)(Cc1ccccc1)Nc1c(F)cc(Oc2ncccc2-c2ccnc(NC3CNCC(CF)C3)n2)c(F)c1F (single isomer, unassigned) [Compound 277, 1-Phenyl-N-(2,3,6-trifluoro-4-((3-(2-((5-(fluoromethyl)piperidin-3-yl)amino)pyrimidin-4-yl)pyridin-2-yl)oxy)phenyl)methanesulfonamide]"
14,0.78 nM,"O=S(=O)(Cc1ccccc1)Nc1c(F)cc(Oc2ncccc2-c2ccnc(NC3CNCC(CF)C3)n2)c(F)c1F (single isomer, unassigned) [Compound 278, 1-Phenyl-N-(2,3,6-trifluoro-4-((3-(2-((5-(fluoromethyl)piperidin-3-yl)amino)pyrimidin-4-yl)pyridin-2-yl)oxy)phenyl)methanesulfonamide]"
15,1.5 nM,"O=S(=O)(Cc1ccccc1)Nc1c(F)cc(Oc2ncccc2-c2ccnc(NC3CC4CCCN(C4)C3)n2)c(F)c1F (single isomer, unassigned) [Compound 287, N-(4-((3-(2-((1-azabicyclo[3.3.1]nonan-3-yl)amino)pyrimidin-4-yl)pyridin-2-yl)oxy)-2,3,6-trifluorophenyl)-1-phenylmethanesulfonamide hydrochloride]"
16,1.1 nM,"O=S(=O)(Cc1ccccc1)Nc1c(F)cc(Oc2ncccc2-c2ccnc(NC3CC4CCCN(C4)C3)n2)c(F)c1F (single isomer, unassigned) [Compound 288, N-(4-((3-(2-((1-azabicyclo[3.3.1]nonan-3-yl)amino)pyrimidin-4-yl)pyridin-2-yl)oxy)-2,3,6-trifluorophenyl)-1-phenylmethanesulfonamide]"
17,0.59 nM,"CC1(CF)CNCC(Nc2nccc(-c3cccnc3Oc3cc(F)c(NS(=O)(=O)Cc4ccccc4)c(F)c3F)n2)C1 (single isomer, unassigned) [Compound 294, 1-Phenyl-N-(2,3,6-trifluoro-4-((3-(2-((5-(fluoromethyl)-5-methylpiperidin-3-yl)amino)pyrimidin-4-yl)pyridin-2-yl)oxy)phenyl)methanesulfonamide]"
18,41 nM,"CC1(CF)CNCC(Nc2nccc(-c3cccnc3Oc3cc(F)c(NS(=O)(=O)Cc4ccccc4)c(F)c3F)n2)C1 (single isomer, unassigned) [Compound 295, 1-Phenyl-N-(2,3,6-trifluoro-4-((3-(2-((5-(fluoromethyl)-5-methylpiperidin-3-yl)amino)pyrimidin-4-yl)pyridin-2-yl)oxy)phenyl)methanesulfonamide]"
19,1.8 nM,"O=S(=O)(Cc1ccccc1)Nc1c(F)cc(Oc2ncccc2-c2ccnc(NC3CNCC4(C3)CC4(F)F)n2)c(F)c1F (single isomer, unassigned) [Compound 298, N-(4-((3-(2-((1,1-Difluoro-5-azaspiro[2.5]octan-7-yl)amino)pyrimidin-4-yl)pyridin-2-yl)oxy)-2,3,6-trifluorophenyl)-1-phenylmethanesulfonamide]"
20,0.38 nM,"O=S(=O)(Cc1ccccc1)Nc1c(F)cc(Oc2ncccc2-c2ccnc(NC3CNCC4(C3)CC4(F)F)n2)c(F)c1F (single isomer, unassigned) [Compound 299, N-(4-((3-(2-((1,1-Difluoro-5-azaspiro[2.5]octan-7-yl)amino)pyrimidin-4-yl)pyridin-2-yl)oxy)-2,3,6-trifluorophenyl)-1-phenylmethanesulfonamide]"
21,8.7 nM,"O=S(=O)(Cc1ccccc1)Nc1c(F)cc(Oc2ncccc2-c2ccnc(NC3CNCC4(C3)CC4(F)F)n2)c(F)c1F (single isomer, unassigned) [Compound 300, N-(4-((3-(2-((1,1-Difluoro-5-azaspiro[2.5]octan-7-yl)amino)pyrimidin-4-yl)pyridin-2-yl)oxy)-2,3,6-trifluorophenyl)-1-phenylmethanesulfonamide]"
22,0.36 nM,"O=S(=O)(Cc1ccccc1)Nc1c(F)cc(Oc2ncccc2-c2ccnc(NC3CNCC4(C3)CC4(F)F)n2)c(F)c1F (single isomer, unassigned) [Compound 301, N-(4-((3-(2-((1,1-Difluoro-5-azaspiro[2.5]octan-7-yl)amino)pyrimidin-4-yl)pyridin-2-yl)oxy)-2,3,6-trifluorophenyl)-1-phenylmethanesulfonamide]"
